Test results from a compilation of properties of binary mixtures (doi:10.2298/jsc190413047v).

Assay: xn = mol fraction of the nth substance listed
Details: 100 kPa

CCCC[n+]1ccn(C)c1.O=S(=O)([N-]S(=O)(=O)C(F)(F)F)C(F)(F)F + O=C1CCCO1
x2 = 0
Details | electrical conductivity [S/m] | viscosity [mPa·s]
293.15 K | 0.337 | 62.1
308.15 K | 0.552 | 33.65
313.15 K | 0.64 | 28.28
318.15 K | 0.733 | 23.91
323.15 K | 0.835 | 20.64

CCCn1cc[n+](C)c1C.O=S(=O)([N-]S(=O)(=O)C(F)(F)F)C(F)(F)F + O=C1CCCO1
electrical conductivity [S/m]
Details | 293.15 K | 298.15 K | 303.15 K | 308.15 K | 313.15 K | 318.15 K | 323.15 K
x2 = 0 | 0.196 | – | 0.338 | 0.417 | 0.503 | 0.59 | 0.687
x2 = 0.1289 | 0.24 | 0.312 | – | 0.479 | 0.578 | 0.678 | 0.788
x2 = 0.2006 | – | 0.351 | 0.444 | – | 0.65 | 0.759 | –
x2 = 0.3027 | 0.343 | 0.428 | 0.537 | 0.646 | 0.779 | 0.907 | 1.02
x2 = 0.3969 | 0.451 | 0.539 | 0.657 | 0.789 | 0.935 | 1.09 | 1.23
x2 = 0.4952 | 0.593 | 0.708 | 0.844 | 0.995 | 1.16 | – | 1.46
x2 = 0.5969 | 0.797 | 0.927 | 1.07 | 1.21 | 1.38 | 1.54 | 1.7
x2 = 0.6992 | – | 1.13 | 1.27 | – | – | 1.74 | 1.92
x2 = 0.8002 | – | 1.31 | 1.45 | 1.59 | 1.73 | – | 2.07
x2 = 0.8508 | 1.25 | 1.38 | – | 1.63 | – | 1.91 | 2.06
x2 = 0.8999 | – | 1.32 | 1.44 | 1.55 | – | 1.81 | 1.94
x2 = 0.9495 | 0.875 | 0.954 | 1.03 | – | 1.2 | 1.29 | 1.39

CCCCCCCCn1cc[n+](C)c1.O=S(=O)([N-]S(=O)(=O)C(F)(F)F)C(F)(F)F + O=C1CCCO1
electrical conductivity [S/m]
Details | x2 = 0 | x2 = 0.0997 | x2 = 0.2993 | x2 = 0.5048 | x2 = 0.6963 | x2 = 0.7994 | x2 = 0.8503 | x2 = 0.8999 | x2 = 0.9514
293.15 K | 0.106 | 0.126 | 0.184 | – | 0.601 | 0.845 | 0.953 | 0.984 | 0.653
298.15 K | – | 0.161 | 0.235 | 0.396 | – | 0.955 | 1.06 | 1.07 | 0.718
303.15 K | 0.17 | 0.199 | 0.28 | 0.474 | 0.83 | 1.07 | 1.17 | 1.18 | –
308.15 K | – | 0.24 | 0.342 | 0.553 | 0.94 | 1.21 | 1.29 | 1.29 | 0.853
313.15 K | 0.254 | 0.285 | – | 0.636 | 1.06 | 1.33 | 1.41 | 1.39 | 0.915
318.15 K | – | – | 0.48 | 0.744 | 1.19 | 1.47 | 1.53 | – | 0.976
323.15 K | 0.361 | 0.397 | – | 0.817 | 1.33 | 1.56 | 1.64 | 1.59 | –

O=C1CCCO1 + CCCC[n+]1ccn(C)c1.O=S(=O)([N-]S(=O)(=O)C(F)(F)F)C(F)(F)F
Details | electrical conductivity [S/m] | viscosity [mPa·s]
293.15 K, x1 = 0.1005 | 0.347 | 46.39
293.15 K, x1 = 0.1984 | 0.388 | 37.16
293.15 K, x1 = 0.4001 | 0.519 | 23.42
293.15 K, x1 = 0.5021 | 0.637 | 17.37
293.15 K, x1 = 0.5979 | 0.797 | 12.26
293.15 K, x1 = 0.7021 | 1.13 | 8.54
293.15 K, x1 = 0.7999 | 1.34 | 5.53
293.15 K, x1 = 0.8995 | 1.34 | 3.49
293.15 K, x1 = 0.95 | 1.04 | –
293.15 K, x1 = 1 | 0.001 | 1.92
298.15 K, x1 = 0.1005 | 0.428 | 38.33
298.15 K, x1 = 0.1984 | 0.469 | 30.92
298.15 K, x1 = 0.2992 | 0.546 | 24.97
298.15 K, x1 = 0.4001 | 0.618 | 19.75
298.15 K, x1 = 0.5979 | 0.928 | 10.7
298.15 K, x1 = 0.7021 | 1.29 | 7.58
298.15 K, x1 = 0.7999 | 1.5 | 5.04
298.15 K, x1 = 0.8496 | 1.53 | –
298.15 K, x1 = 0.8995 | 1.48 | 3.26
298.15 K, x1 = 0.95 | 1.14 | –
298.15 K, x1 = 1 | 0.001 | 1.73
298.15 K, x2 = 0.0151 | 0.444 | –
303.15 K, x1 = 0.1005 | 0.501 | 31.8
303.15 K, x1 = 0.1984 | 0.552 | 25.69
303.15 K, x1 = 0.4001 | 0.72 | 16.68
303.15 K, x1 = 0.5021 | 0.853 | 12.76
303.15 K, x1 = 0.5979 | 1.05 | 9.32
303.15 K, x1 = 0.7021 | 1.43 | 6.67
303.15 K, x1 = 0.7999 | 1.65 | 4.55
303.15 K, x1 = 0.8496 | 1.69 | –
303.15 K, x1 = 0.8995 | 1.61 | 2.97
303.15 K, x1 = 0.95 | 1.23 | –
303.15 K, x1 = 1 | 0.001 | 1.63
303.15 K, x2 = 0.0151 | 0.477 | –
308.15 K, x1 = 0.1005 | 0.586 | 26.88
308.15 K, x1 = 0.1984 | 0.642 | 21.98
308.15 K, x1 = 0.2992 | 0.745 | 17.9
308.15 K, x1 = 0.4001 | 0.825 | 14.35
308.15 K, x1 = 0.5021 | 0.981 | 11.04
308.15 K, x1 = 0.7021 | 1.63 | 6
308.15 K, x1 = 0.8995 | 1.75 | 2.76
308.15 K, x1 = 0.95 | 1.32 | –
308.15 K, x2 = 0.0151 | 0.509 | –
313.15 K, x1 = 0.1005 | 0.68 | 22.69
313.15 K, x1 = 0.2992 | 0.854 | 15.26
313.15 K, x1 = 0.4001 | 1 | 12.32
313.15 K, x1 = 0.5021 | 1.2 | 9.62
313.15 K, x1 = 0.7021 | 1.81 | 5.41
313.15 K, x1 = 0.7999 | 1.98 | 3.78
313.15 K, x1 = 0.8496 | 2.01 | –
313.15 K, x1 = 0.8995 | 1.88 | 2.55
318.15 K, x1 = 0.1005 | 0.768 | 19.31
318.15 K, x1 = 0.1984 | 0.85 | 15.86
318.15 K, x1 = 0.2992 | 0.965 | 13.24
318.15 K, x1 = 0.4001 | 1.19 | 10.82
318.15 K, x1 = 0.5021 | 1.4 | 8.52
318.15 K, x1 = 0.5979 | 1.64 | 6.49
318.15 K, x1 = 0.7021 | 1.99 | 4.84
318.15 K, x2 = 0.0151 | 0.576 | –
323.15 K, x1 = 0.1005 | 0.898 | 16.54
323.15 K, x1 = 0.1984 | 1.03 | 13.86
323.15 K, x1 = 0.2992 | 1.24 | 11.57
323.15 K, x1 = 0.4001 | 1.46 | 9.47
323.15 K, x1 = 0.5021 | 1.68 | 7.51
323.15 K, x1 = 0.5979 | 1.91 | 5.83
323.15 K, x1 = 0.7021 | 2.21 | 4.44
323.15 K, x1 = 0.8496 | 2.34 | –
323.15 K, x1 = 0.8995 | 2.17 | 2.18
323.15 K, x1 = 0.95 | 1.62 | –
323.15 K, x2 = 0.0151 | 0.609 | –
